The text below walks through data of PubChem BioAssay AID2060490 (Molecular Pharmacology Branch, DTP, NCI, 2025).

The test has as its system 885512-296-R-J2-PDC complex spheroid viability. The test is described as follows: Anticancer human tumor 885512-296-R-J2-PDC patient-derived breast carcinoma cell line growth inhibition [GQUAD]. The note with it: for viability, T/C: stronger effect = lower value. From the text: DNA G-quadruplex Stabilizer Agents in Combinations in Complex Spheroids
A high-throughput screen of multi-cell type tumor spheroids was designed to identify active combinations of DNA G-quadruplex stabilizer agents and targeted small molecules. Complex spheroids include a stromal component modeled by human endothelial cells (HUVEC) and fibroblasts modeled by human mesenchymal stem cells (MSCs). The concentration ranges selected for each drug and investigational agent were based upon clinically achievable concentrations if the clinical Cmax of the agent was known.
Compounds. The drugs and investigational agents: pidnarulex (CX-5461; NSC782164), APTO-253 (NSC789042), BRACO-19 (NSC847499), peposertib (NSC802822), ceralasertib (NSC780249), elimusertib (NSC800525), camonsertib (NSC841442), AZD-1390 (NSC803789), olaparib (NSC753686), talazoparib (NSC767125), ART-558 (NSC835418), sotorasib (NSC818433), MRTX-1133 (NSC836407), SN-38 (NSC673596), topotecan (NSC609699), etoposide (NSC141540), doxorubicin (NSC123127), gemcitabine (NSC613327), 5-fluorouracil (NSC19893), paclitaxel (NSC125973), vemurafenib (NSC761431), panobinostat (NSC761190), R-306465 (JNJ-16241199; NSC773264), adavosertib (NSC754352), TP-3654 (NSC805149), carboplatin (NSC241240), KSQ-4279 (NSC840948), and staurosporine (NSC755774) were obtained from the National Cancer Institute (NCI) Developmental Therapeutics Program Chemical Repository (34). The FDA-approved anticancer drug set is available from the NCI Developmental Therapeutics Program. […] The stock solutions were prepared in dimethyl sulfoxide (DMSO, Sigma-Aldrich, St. Louis, MO, cat. D2650) at 800-fold the tested concentration and stored at -70 degrees C prior to their use. All drugs and investigational agents were tested over a range starting from a high concentration at or near the clinical Cmax and decreasing in half-log increments. If the clinical Cmax for an agent had not been determined, the highest concentration tested was 10 microM.
2.3 Cell Culture. All cells were maintained in an incubator at 37 degrees C and 5% CO2 with 95% humidity. The PDC lines were cultured according to standard operating procedures established by the NCI PDMR. All PDCs were thawed and cultured in Matrigel-coated flasks prepared with a working solution of 1X Ham's F-12 nutrient mix, without supplementation (Invitrogen, cat. 11765054), 100 U/mL penicillin-streptomycin (Invitrogen, cat. 15140122), and 2.5% Matrigel (Corning Inc., cat. 354248) for the first three passages. The 857933-349-R-J2-PDC line was cultured in 6C/Colon 1B media, which includes advanced DMEM/F-12 (Thermo Fisher Scientific, cat. 12634028), 10 mM HEPES (Thermo Fisher Scientific, cat. 15630080), 1X GlutaMAX supplement (Thermo Fisher Scientific, cat. 35050061), 0.1 mg/mL primocin (InvivoGen, cat. ant-pm-2), 10% defined fetal bovine serum, heat inactivated (HyClone Laboratories Inc., cat. SH30070.03HI), 50% L-WRN conditioned media (ATCC, cat. CRL-3276), 1.25 mM N-Acetyl-L-cysteine (Sigma-Aldrich, cat. A9165), 10 mM nicotinamide (Sigma-Aldrich, cat. N0636), 1X B-27 supplement (Thermo Fisher Scientific, cat. 17504044), 1X N-2 supplement (Thermo Fisher Scientific, cat. 17502048), 10 microM Y-27632 dihydrochloride (Tocris Bioscience, cat. 1254), and 50 ng/mL human EGF recombinant protein (Thermo Fisher Scientific, cat. PHG0311). The 485176-168-R4-J1-PDC line was cultured in Panc media, which includes all 6C/Colon 1B media components plus 100 ng/mL human FGF-10 (Thermo Fisher Scientific, cat. 100-26), 500 nM SB-431542 (Selleckchem, cat. S1067), and gastrin (Tocris, cat. 3006).
[…]

Several values for one entry are separate records, joined by “and”; a condition that tells them apart may be missing. Equal values may be shown once. Some results are limits rather than exact numbers.
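Note: spheroids exposed to the compounds for one week.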
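Throughout, for viability, T/C: percent of tumor spheroid viability relative to DMSO vehicle control wells.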

In the case of `O=C(c1cc(Cc2n[nH]c(=O)c3ccccc23)ccc1F)N1CCN(C(=O)C2CC2)CC1` + Cc1cnc(CNC(=O)c2c(=O)c3ccc(N4CCCN(C)CC4)nc3n3c2sc2ccccc23)cn1, the half-maximal inhibitory concentration (IC50) (curve of first compound, second compound 0.0316 µM) was found to be 2560 nM; the concentration for half-maximal inhibition (IC50) (curve of first compound, second compound 0.1 µM) came to 551 nM; the IC50 (curve of first compound, second compound 0.316 µM) was below 31.6 nM; the half-inhibitory concentration (IC50) (curve of first compound, second compound 1 µM) was below 31.6 nM; the IC50 (curve of first compound, second compound 3.16 µM) is below 31.6 nM; the IC50 (curve of first compound, second compound 10 µM) is below 31.6 nM. Besides, the viability, T/C (second compound 0.0316 µM, first compound 0.0316 µM) is 78.3%; the viability, T/C (second compound 0.0316 µM, first compound 0.1 µM) is 69.4%; the viability, T/C (second compound 0.0316 µM, first compound 0.316 µM) was 95.4%; the viability, T/C (second compound 0.0316 µM, first compound 1 µM) is 83.6%; the viability, T/C (second compound 0.0316 µM, first compound 3.16 µM) was 42.9%; the viability, T/C (second compound 0.0316 µM, first compound 10 µM) was 23.8%. The viability, T/C reads like this: (second compound 0.1 µM, first compound 0.0316 µM) 57.4%; (second compound 0.1 µM, first compound 0.1 µM) 55.5%; (second compound 0.1 µM, first compound 0.316 µM) 53.2%; (second compound 0.1 µM, first compound 1 µM) 46.8%; (second compound 0.1 µM, first compound 3.16 µM) 35.4%; (second compound 0.1 µM, first compound 10 µM) 22.5%. Further, the viability, T/C is, setting by setting: (second compound 0.316 µM, first compound 0.0316 µM) 28.4%; (second compound 0.316 µM, first compound 0.1 µM) 26.7%; (second compound 0.316 µM, first compound 0.316 µM) 25.7%; (second compound 0.316 µM, first compound 1 µM) 17.6%; (second compound 0.316 µM, first compound 3.16 µM) 10.7%; (second compound 0.316 µM, first compound 10 µM) 15.5%. For the same molecule, the viability, T/C was 23.4% (second compound 1 µM, first compound 0.0316 µM); 22.8% (second compound 1 µM, first compound 0.1 µM); 25.7% (second compound 1 µM, first compound 0.316 µM); 21% (second compound 1 µM, first compound 1 µM); 18% (second compound 1 µM, first compound 3.16 µM); 18.4% (second compound 1 µM, first compound 10 µM). The viability, T/C was 25% (second compound 3.16 µM, first compound 0.0316 µM); 26.6% (second compound 3.16 µM, first compound 0.1 µM); 27% (second compound 3.16 µM, first compound 0.316 µM); 24.5% (second compound 3.16 µM, first compound 1 µM); 23% (second compound 3.16 µM, first compound 3.16 µM); 8.85% (second compound 3.16 µM, first compound 10 µM). Besides, the viability, T/C runs as follows: (second compound 10 µM, first compound 0.0316 µM) 0.44%; (second compound 10 µM, first compound 0.1 µM) 0.21%; (second compound 10 µM, first compound 0.316 µM) 0.23%; (second compound 10 µM, first compound 1 µM) 0.19%; (second compound 10 µM, first compound 3.16 µM) 0.23%; (second compound 10 µM, first compound 10 µM) 0.19%.
For the molecule `C#Cc1c(F)ccc2cc(O)cc(-c3ncc4c(N5CC6CCC(C5)N6)nc(OCC56CCCN5CC(F)C6)nc4c3F)c12` (stereo unspecified), the viability, T/C by setting is: (compound 0.0316 µM) 107% and 90.4% and 97.3%; (compound 0.1 µM) 97.7% and 92% and 97.9%; (compound 0.316 µM) 109% and 86.7% and 97.7%; (compound 1 µM) 90.1% and 70.5% and 98.3%; (compound 3.16 µM) 106% and 14% and 100%; (compound 10 µM) 83.4% and 22.4% and 90.7%. The IC50 (curve of compound) is > 10000 nM and 1570 nM.
With `CC(C)n1c(=O)n(C)c2cnc3cc(F)c(-c4ccc(OCCCN5CCCCC5)nc4)cc3c21`, the viability, T/C reads like this: (compound 0.0316 µM) 88.8% and 89% and 85.8%; (compound 0.1 µM) 97% and 84.5% and 80.4%; (compound 0.316 µM) 88% and 93.7% and 77.8%; (compound 1 µM) 85.8% and 90.9% and 79.7%; (compound 3.16 µM) 104% and 97.5% and 90.3%; (compound 10 µM) 100% and 105% and 104%. Also, where the note is “curve of compound”, the IC50 was above 10000 nM.
Consider `COc1ccc([C@@H](O)c2cc(-c3ncnc4cc(N5CCOCC5)ccc34)c(F)cc2Cl)nn1`, for which the viability, T/C (compound 0.0316 µM) is 110% and 101% and 96%; the viability, T/C (compound 0.1 µM) was 103% and 106% and 92.4%; the viability, T/C (compound 0.316 µM) was 101% and 89.6% and 92.7%; the viability, T/C (compound 1 µM) is 97.4% and 79.5% and 91.5%; the viability, T/C (compound 3.16 µM) is 79.2% and 89.1% and 88.5%; the viability, T/C (compound 10 µM) is 64.3% and 53.6% and 58.4%. Further, the 50% inhibitory concentration (IC50) (curve of compound) is above 10000 nM.
In the case of `C=CC(=O)N1CCN(c2nc(=O)n(-c3c(C)ccnc3C(C)C)c3nc(-c4c(O)cccc4F)c(F)cc23)C(C)C1` (stereo unspecified), the viability, T/C reads like this: (compound 0.0316 µM) 99% and 103% and 101%; (compound 0.1 µM) 91% and 94.9% and 108%; (compound 0.316 µM) 109% and 105% and 97.4%; (compound 1 µM) 109% and 98.9% and 95.3%; (compound 3.16 µM) 99.7% and 103% and 91.2%; (compound 10 µM) 96.4% (2×) and 95.7%. Also, the IC50 (curve of compound) is above 10000 nM.
Take `COc1cccc2c1C(=O)c1c(O)c3c(c(O)c1C2=O)CC(O)(C(=O)CO)CC3OC1CC(N)C(O)C(C)O1` (stereo unspecified): the viability, T/C by setting is: (compound 0.0316 µM) 87.2% and 85.7% and 88.6%; (compound 0.1 µM) 44.6% and 31.4% and 27.5%; (compound 0.316 µM) 23.1% and 20.1% and 23.4%; (compound 1 µM) 5.91% and 6.03% and 8.79%; (compound 3.16 µM) 0.33% and 0.51% and 0.46%; (compound 10 µM) 2.28% and 1.5% and 4.09%. In addition, the IC50 (curve of compound) is 88.8 nM and 70.9 nM and 70 nM.
As for `CC[C@@]1(O)C(=O)OCc2c1cc1n(c2=O)Cc2cc3c(CN(C)C)c(O)ccc3nc2-1`, the viability, T/C by setting is: (compound 0.000999 µM) 116% and 100% and 107%; (compound 0.00316 µM) 93.6% and 104% and 96.9%; (compound 0.00999 µM) 84% and 86.7% and 91.6%; (compound 0.0316 µM) 47.7% and 30.2% and 36.7%; (compound 0.0999 µM) 11.4% and 8.49% and 7.63%; (compound 0.316 µM) 4.95% and 2.59% and 5.86%. In addition, the IC50 (curve of compound) is 27.4 nM and 21.2 nM and 23.9 nM.
For `CC(C)(O)C1CCC(Nc2ccc3ncc(-c4cccc(C(F)(F)F)c4)n3n2)CC1` (stereo unspecified), the viability, T/C was 102% and 97.2% and 101% (compound 0.0316 µM); 93.2% and 94.8% and 101% (compound 0.1 µM); 95.9% and 90.2% and 100% (compound 0.316 µM); 89.1% and 67.6% and 76.8% (compound 1 µM); 102% and 16.3% and 16.4% (compound 3.16 µM); 84.3% and 28.2% and 20.7% (compound 10 µM). The IC50 (curve of compound) was > 10000 nM and 1560 nM and 1700 nM.

By IC50 is commonly meant the concentration needed to halve the response being measured. The term viability, T/C denotes the result in the treated group divided by that in the control group, in per cent.
